Experimental data taken from paper PMC8296985, “A Covalent Calmodulin Inhibitor as a Tool to Study Cellular Mechanisms of K-Ras-Driven Stemness” (Frontiers in Cell and Developmental Biology, 2021).
“And” between values parts separate entries of the source, which are not always exact repeats. Equal entries are not always repeated.

Tests used:
[1] = system: HRAS mutant cells (Hs 578T, T24); assay: 2D viability assay (alamarBlue), DSS3; assay type: cell-based; conditions: relative to OphA; listed as Calmirasone1
Procedure: (§1) To quantitatively profile the drug sensitivity with a more robust parameter than the IC50 or EC50 values, the drug sensitivity score (DSS) analysis was employed. DSS values are essentially normalized area under the curve (AUC) measures of dose-response inhibition data ([Yadav et al., 2014]). Drug response data files (in Excel) ready for online analysis were prepared according to the example file obtained from the DSS pipeline website, called Breeze^1 ([Potdar et al., 2020]). Either raw fluorescence intensity measurements or normalized % inhibition data (for BRET assay analysis) were uploaded.
DSS3 was employed to emphasize drugs that obtain their response area over a relatively wide dose window, as compared to drugs that show increased response only at the higher end of the concentration range. After logistic fitting of the dose-response inhibition data, the area under the curve (AUC) was determined as the exact solution. A 10% minimal activity threshold (t) was set. The maximum (Cmax) and minimum (Cmin) concentrations were used for screening of the inhibitors, with Cmax = x2 and x1 concentration with minimal activity t. […]

[2] = system: NCI-H358, MIA PaCa-2, MDA-MB-231 and A375 3D spheroids; assay: 3D spheroid growth benchmarking, DSS3, alamarBlue; assay type: cell-based
Procedure: 3D spheroid formation assays were performed in 96-well low-attachment, suspension culture plates (cat. no. 655185, Cellstar, Greiner Bio-One) under serum-free condition. About 1,000 (MDA-MB-231, NCI-H358, and MIA PaCa-2) or 2,500 (Hs 578T) cells per well were seeded in 50 μl of either an RPMI medium (cat. no. 52400-025, Gibco, Thermo Fisher Scientific) (MDA-MB-231, A375, and NCI-H358) or DMEM (cat. no. 41965-039, Gibco, Thermo Fisher Scientific) (Hs 578T and MIA PaCa-2), containing 0.5% MethoCult (cat. no. SF H4636, Stemcell technologies), 1x B27 (cat. no. 17504044, Gibco, Thermo Fisher Scientific), 25 ng/ml EGF (cat. no. E9644, Sigma-Aldrich), and 25 ng/ml FGF (cat. no. RP-8628, Thermo Fisher Scientific). Cells were cultured for 3 days and then treated with compounds or vehicle control (DMSO 0.1% v/v in growth medium) for another 3 days. The cells were supplemented with a fresh growth medium on the third day together with the drug treatment. For knockdown experiments, cells were seeded in 12-well plates and treated with either 50 nM scrambled siRNA (cat. no. 1022076, QIAGEN) or indicated concentrations of siRNAs. Next day, cells were collected by trypsinization and re-plated into 96-well plates for 3D spheroid suspension culture.
Spheroid formation efficiency was analyzed by an alamarBlue assay reagent (cat. no. DAL1100, Thermo Fisher Scientific). A 10% final volume of the alamarBlue reagent was added to each well of the plate and incubated for 4 h at 37°C. Then the fluorescence intensity was measured using the FLUOstar OPTIMA plate reader (BMG Labtech, Germany) with an excitation wavelength of 560 ± 5 nm and an emission wavelength of 590 ± 5 nm.
as §1
DSS3 was employed to emphasize drugs that obtain their response area over a relatively wide dose window, as compared to drugs that show increased response only at the higher end of the concentration range. After logistic fitting of the dose-response inhibition data, the area under the curve (AUC) was determined as the exact solution. A 10% minimal activity threshold (t) was set. The maximum (Cmax) and minimum (Cmin) concentrations were used for screening of the inhibitors, with Cmax = x2 and x1 concentration with minimal activity t.

## CC(C)c1ccc2cc(C(F)(F)F)c(=O)c3c(N4CCCCC4)c(C=O)c(c1)c23 [Compound 1]
[1]
  lower unspecific toxic effect on HRAS mutant cells as compared to OphA: > 40 fold and 40–260 fold
[2]; relative to AMG-510
  DSS3 potency relative to K-RasG12C inhibitor AMG-510 in 3D spheroid assays: ~50%
[2]; spheroids grown 72 h then treated 72 h
  effect on 3D spheroid growth: visibly lower activity
